Results as given in PubChem BioAssay (NCI).
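Interpolation was linear, between the two tested concentrations surrounding the appropriate level; five concentrations were tested over 48 hours in 96-well plates. TGI: total growth inhibition.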

Key:
Experiment in all cases: growth of human tumour cells (NCI), 48 h
[1] = system: BT-549 breast
[2] = system: SK-OV-3 ovarian
[3] = system: OVCAR-8 ovarian
[4] = system: MDA-MB-231 breast
[5] = system: UACC-257 melanoma
[6] = system: SF-295 CNS
[7] = system: IGROV1 ovarian
[8] = system: HOP-92 NSCLC
[9] = system: T-47D breast
[10] = system: HCT-15 colon
[11] = system: MDA-N
[12] = system: NCI-H226 lung
[13] = system: SNB-75 CNS
[14] = system: MALME-3M melanoma
[15] = system: SK-MEL-28 melanoma
[16] = system: EKVX NSCLC
[17] = system: SF-268 CNS
[18] = system: SK-MEL-5 melanoma
[19] = system: NCI/ADR-RES ovarian
[20] = system: A549 NSCLC
[21] = system: SNB-19 CNS
[22] = system: SK-MEL-2 melanoma
[23] = system: M14 melanoma
[24] = system: SF-539 CNS
[25] = system: NCI-H522 lung
[26] = system: LOX IMVI melanoma
[27] = system: COLO 205 colon
[28] = system: MOLT-4 leukemia
[29] = system: UO-31 renal
[30] = system: U251 CNS
[31] = system: KM12 colon
[32] = system: TK-10 renal
[33] = system: HT29 colon
[34] = system: HOP-62 NSCLC
[35] = system: RXF 393 renal
[36] = system: UACC-62 melanoma
[37] = system: NCI-H460 lung
[38] = system: MDA-MB-435
[39] = system: CAKI-1 renal
[40] = system: RPMI-8226 leukemia
[41] = system: SW-620 colon
[42] = system: K-562 leukemia
[43] = system: PC-3 prostate
[44] = system: 786-0 renal
[45] = system: HCT-116 colon
[46] = system: DU-145 prostate
[47] = system: HL-60(TB) leukemia
[48] = system: OVCAR-5 ovarian
[49] = system: HS 578T breast
[50] = system: SN12C renal
[51] = system: CCRF-CEM leukemia
[52] = system: A498 renal
[53] = system: OVCAR-3 ovarian
[54] = system: ACHN renal
[55] = system: NCI-H23 lung
[56] = system: HCC-2998 colon
[57] = system: MCF7 breast
[58] = system: OVCAR-4 ovarian
[59] = system: SR leukemia

CC(=O)N1c2ccccc2[C@H]2CCc3c([nH]c4ccccc34)[C@H]21
TGI [1]: 30 µM | TGI [2]: > 100 µM | TGI [3]: > 100 µM | TGI [4]: 31.5 µM | TGI [5]: > 100 µM | TGI [6]: 74.4 µM | TGI [7]: 44.3 µM | TGI [8]: 33.5 µM | TGI [9]: 96.9 µM | TGI [10]: 31.6 µM | TGI [11]: 49.3 µM | TGI [12]: 36.7 µM | TGI [13]: 63 µM | TGI [14]: 30.7 µM | TGI [15]: 31.1 µM | TGI [16]: 49 µM | TGI [17]: 52.3 µM | TGI [18]: 26.2 µM | TGI [19]: > 100 µM | TGI [20]: 67.3 µM | TGI [21]: > 100 µM | TGI [22]: 74.1 µM | TGI [23]: 30.9 µM | TGI [24]: 26.1 µM | TGI [25]: 51.3 µM | TGI [26]: 31.8 µM | TGI [27]: 27.6 µM | TGI [28]: 53.1 µM | TGI [29]: 67.6 µM | TGI [30]: 26.5 µM | TGI [31]: 39.5 µM | TGI [32]: > 100 µM | TGI [33]: 44.7 µM | TGI [34]: 28.1 µM | TGI [35]: 28.4 µM | TGI [36]: 27.7 µM | TGI [37]: 23.3 µM | TGI [38]: 42.5 µM | TGI [39]: 64.4 µM | TGI [40]: 43.5 µM | TGI [41]: 37.3 µM | TGI [42]: 30.9 µM | TGI [43]: > 100 µM | TGI [44]: 32.2 µM | TGI [45]: 11.4 µM | TGI [46]: 61.9 µM | TGI [47]: 34.2 µM | TGI [48]: > 100 µM | TGI [49]: 57.7 µM | TGI [50]: 27.5 µM | TGI [51]: 40.2 µM | TGI [52]: 36.2 µM | TGI [53]: 31.6 µM | TGI [54]: > 100 µM | TGI [55]: 31.2 µM

COc1cc(S(=O)(=O)Nc2ccc(-c3csc(/N=C\c4cccs4)n3)cc2)ccc1Cl
TGI [1]: > 100 µM | TGI [2]: > 100 µM | TGI [3]: > 100 µM | TGI [4]: > 100 µM | TGI [5]: > 100 µM | TGI [56]: 70.1 µM | TGI [6]: > 100 µM | TGI [7]: > 100 µM | TGI [8]: > 100 µM | TGI [9]: 62.8 µM | TGI [10]: > 100 µM | TGI [11]: > 100 µM | TGI [12]: > 100 µM | TGI [13]: 81.5 µM | TGI [14]: > 100 µM | TGI [15]: > 100 µM | TGI [16]: > 100 µM | TGI [17]: > 100 µM | TGI [18]: > 100 µM | TGI [19]: > 100 µM | TGI [57]: 48.5 µM | TGI [20]: > 100 µM | TGI [21]: > 100 µM | TGI [22]: > 100 µM | TGI [23]: > 100 µM | TGI [24]: > 100 µM | TGI [25]: > 100 µM | TGI [58]: > 100 µM | TGI [26]: > 100 µM | TGI [27]: > 100 µM | TGI [29]: > 100 µM | TGI [32]: > 100 µM | TGI [33]: > 100 µM | TGI [34]: > 100 µM | TGI [36]: 92.2 µM | TGI [37]: > 100 µM | TGI [38]: 96.9 µM | TGI [39]: > 100 µM | TGI [40]: > 100 µM | TGI [41]: > 100 µM | TGI [42]: > 100 µM | TGI [43]: > 100 µM | TGI [44]: > 100 µM | TGI [45]: > 100 µM | TGI [46]: > 100 µM | TGI [48]: > 100 µM | TGI [49]: > 100 µM | TGI [50]: > 100 µM | TGI [59]: 52.2 µM | TGI [51]: 80.3 µM | TGI [52]: > 100 µM | TGI [53]: > 100 µM | TGI [54]: > 100 µM | TGI [55]: > 100 µM
